Consider six molecules from patent publication US20070166781A1, “Method for assessing the virulence of pathogens and uses thereof” (priority 2002, published 2007).

What all share (format): cell-based
Test [1] deals with P. aeruginosa PT149 (nfxC). Put plainly: MIC in Mueller-Hinton broth by the microdilution method. Particulars: Pseudomonas aeruginosa. How it is done: (§1) Bacteria were grown overnight at 37° C. on Luria-Bertani (LB) agar. Single colonies were inoculated into 5 ml PB (2% (wt/vol) peptone, 0.3% (wt/vol) MgCl2.6H2O, 1% (wt/vol) K2SO4) (Essar et al., 1990, J. Bacteriol., 172(2), 884-900) in a 50 ml flask and grown at 37° C. for 8 hr prior to use. […] Under these conditions, similar OD600s were obtained for each strain and the induction of quorum sensing was maximal. Minimal Inhibitory Concentrations (MICs) were determined in Mueller-Hinton broth by the microdilution method (Thornsberry et al., 1983 NCCLS, 3, 48-56).

For test [2], the system named is P. aeruginosa PAO-BI (nfxC). The test is described as above. Particulars: Pseudomonas aeruginosa. As to the method: as §1
Test [3] concerns P. aeruginosa PT625 (nalB). Described as above. Particulars: Pseudomonas aeruginosa. As to the method: as §1
The subject of test [4] is P. aeruginosa PT648 (nfxB). Described as above. Conditions: Pseudomonas aeruginosa. How it is done: as §1
For test [5], the system named is P. aeruginosa PAO1. The description is as above. Particulars: Pseudomonas aeruginosa; strain PAO1. As to the method: as §1
The next test deals with P. aeruginosa PDO100. Described as above. Conditions: Pseudomonas aeruginosa. How it is done: as §1
Test [6] deals with P. aeruginosa PAO1. Put plainly: Growth of D. discoideum DH1-10 on a lawn of P. aeruginosa PAO1 grown with azithromycin. Particulars: lawn of PAO1, 2 μg/ml azithromycin. As to the method:
Quantitative measurements of D. discoideum growth on a lawn of pure P. aeruginosa were obtained by first plating 200 μl of P. aeruginosa culture on SM-agar. Droplets of 5 μl containing serial dilutions of D. discoideum cells (50.000 cells, 10.000 cells, 2.000, etc.) were then spotted on the bacterial lawn. The plates were incubated for 5 days at 25° C. and the highest dilution at which D. discoideum growth was visible was recorded.
However, in these experiments, Dictyostelium was grown in, the presence of both Klebsiella and Pseudomonas bacteria. […] To obtain more quantitative results, higher numbers of Dictyostelium cells were used to determine how many amoebae would be necessary to create a plaque in a lawn of P. aeruginosa. […] Consequently growth of Dictyostelium on the lasR mutant was scored as 1. On a lawn of the rhlR mutant PT462, amoebal growth could be observed in the first five dilutions of Dictyostelium (FIG. 2C; scored 5). […]
A lawn of P. aeruginosa PAO1 is grown in the presence of 2 μg/ml of azithromycin overnight. The bacterial lawn is then seeded with different dilutions of D. discoideum DH1-10 three days latter and the appearance of D. discoideum DH1-10 colonies is monitored. Growth of colonies of D. discoideum DH1-10 are recorded and scored between 1 and 2 (same scale as FIG. 2) as compared to a score of 0 in the absence of antibiotic.

The mark [7] stands for this setting: strain PT149 (nfxC), read-out: MIC.
Where [8] appears, read: strain PAO-BI (nfxC), read-out: MIC.
Setting [9] is: strain PT648 (nfxB), read-out: MIC.

In brackets after ≈: the same amount, converted by molar mass. Read-outs that look alike come from different tables or passages of the source.

In general, MIC refers to the lowest concentration that inhibits growth of the organism. As to `C[C@H]1[C@H](NC(=O)/C(=N\OC(C)(C)C(=O)O)c2csc(N)n2)C(=O)N1S(=O)(=O)O` [Aztreonam], the MIC in test [1] (setting [7]) was 1 µg/mL (≈ 2.3 µM); in test [2] (setting [8]), 2 µg/mL (≈ 4.59 µM); in test [3], 16 µg/mL (≈ 36.7 µM); in test [4] (setting [9]), 2 µg/mL (≈ 4.59 µM); against P. aeruginosa PAO1 [5] it was 4 µg/mL (≈ 9.19 µM); with P. aeruginosa PDO100 (strain PDO100, read-out: MIC), 2 µg/mL (≈ 4.59 µM).
As to `CC[C@H]1OC(=O)[C@H](C)[C@@H](O[C@H]2C[C@@](C)(OC)[C@@H](O)[C@H](C)O2)[C@H](C)[C@@H](O[C@@H]2O[C@H](C)C[C@H](N(C)C)[C@H]2O)[C@](C)(O)C[C@@H](C)CN(C)[C@H](C)[C@@H](O)[C@]1(C)O` [azithromycin, Azithromycin], in the test with P. aeruginosa PAO1 [6], the “Growth of colonies of D. discoideum DH1-10 in the presence versus absence of azithromycin” value is listed as “significantly greater”.
Turning to `O=C(O)c1cn(C2CC2)c2cc(N3CCNCC3)c(F)cc2c1=O` [Ciprofloxacin], the MIC in test [1] (setting [7]) is 1 µg/mL (≈ 3.02 µM); in test [2] (setting [8]), 1 µg/mL (≈ 3.02 µM); in test [3], 0.5 µg/mL (≈ 1.51 µM); in test [4] (setting [9]), 1 µg/mL (≈ 3.02 µM); in the test with P. aeruginosa PAO1 [5], 0.125 µg/mL (≈ 0.377 µM); with P. aeruginosa PDO100 (strain PDO100, read-out: MIC), 0.125 µg/mL (≈ 0.377 µM).
As to `CO/N=C(\C(=O)N[C@@H]1C(=O)N2C(C(=O)[O-])=C(C[n+]3cccc4c3CCC4)CS[C@H]12)c1csc(N)n1` [Cefpirome], the MIC in test [1] (setting [7]) turned out to be 0.5 µg/mL (≈ 0.972 µM); in test [2] (setting [8]), 0.5 µg/mL (≈ 0.972 µM); in test [3] it was 4 µg/mL (≈ 7.77 µM); in test [4] (setting [9]), 8 µg/mL (≈ 15.5 µM); against P. aeruginosa PAO1 [5] it was 2 µg/mL (≈ 3.89 µM); in the test on P. aeruginosa PDO100 (strain PDO100, read-out: MIC), 2 µg/mL (≈ 3.89 µM).
Turning to `C[C@@H](O)[C@H]1C(=O)N2C(C(=O)O)=C(SCCN=CN)C[C@H]12` [Imipenem], the MIC in test [1] (setting [7]) turned out to be 4 µg/mL (≈ 13.4 µM); in test [2] (setting [8]), 4 µg/mL (≈ 13.4 µM); in test [3], 1 µg/mL (≈ 3.34 µM); in test [4] (setting [9]), 1 µg/mL (≈ 3.34 µM); against P. aeruginosa PAO1 [5], 1 µg/mL (≈ 3.34 µM); in the test with P. aeruginosa PDO100 (strain PDO100, read-out: MIC) it was 1 µg/mL (≈ 3.34 µM).
Take `O=C(N[C@H](CO)[C@H](O)c1ccc([N+](=O)[O-])cc1)C(Cl)Cl` [Chloramphenicol]: the minimal inhibitory concentration (MIC) was 1060 µg/mL (≈ 3290 µM) in test [1]; 1060 µg/mL (≈ 3290 µM) in test [2]; 64 µg/mL (≈ 198 µM) in test [3]; 64 µg/mL (≈ 198 µM) in test [4]; 32 µg/mL (≈ 99 µM) in the test on P. aeruginosa PAO1 [5]; 32 µg/mL (≈ 99 µM) in the test with P. aeruginosa PDO100 (PDO100).
